Holding throughout (format): biochemical
Test [1] has as its target T1, PI3K alpha (Homo sapiens, UniProt P42336).
T1 construct: p85(iSH2) fusion partner (see partner chain) (N); His tag (C); made in house; host or cells: baculovirus; Tn5 (Trichoplusia ni) or TiniPro insect cells
Nature of the test: PI3K alpha kinase assay (Kinase-Glo luminescence). The essentials: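 PI3K alpha at 10 nM with 1 μM ATP and 10 μg/mL phosphatidylinositol in 10 mM TRIS pH 7.5, 3 mM MgCl2, 50 mM NaCl, 0.05% CHAPS, 1 mM DTT, 60 min at room temperature. Remaining ATP read by Kinase-Glo luminescence. IC50 by 4-parameter fit over 8 concentrations.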

In test [2] the target is T2, PI3K beta (Homo sapiens, UniProt P42338).
T2 construct: for the full-length p110-b subunit are generated and fused by overlapping PCR; p85(iSH2) fusion partner (see partner chain) (N); His tag (C); made in house; host or cells: baculovirus; Tn5 (Trichoplusia ni) or TiniPro insect cells
Nature of the test: PI3K beta kinase assay (Kinase-Glo luminescence). The essentials: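 Kinase-Glo luminescence after a 60 min room-temperature reaction gives remaining ATP. The reaction holds 25 nM p85(iSH2)-p110β full-length His-tagged construct, 1 μM ATP, 10 μg/mL PI, and eight compound concentrations at 0.45% DMSO final. IC50 values come from a four-parameter logistic fit.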

For test [3], the target named is T3, PI3K delta (Homo sapiens, UniProt O00329).
T3 construct: for the full-length p110-d subunit are generated and fused by overlapping PCR; p85(iSH2) fusion partner (see partner chain) (N); His tag (C); made in house; host or cells: baculovirus; Tn5 (Trichoplusia ni) or TiniPro insect cells
Nature of the test: PI3K delta kinase assay (Kinase-Glo luminescence). In a few lines: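 Construct BV-1060, p85 iSH2–linker–full-length p110δ, His-tagged, at 10 nM, with 1 μM ATP and 10 μg/mL phosphatidylinositol in pH 7.5 Tris, 3 mM MgCl2, 50 mM NaCl, 0.05% CHAPS. Run 60 min at room temperature; remaining ATP read by Kinase-Glo luminescence; IC50 from 4-parameter logistic fit of 8 concentrations.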
(In general: Kinase-Glo measures the ATP left after a reaction by luminescence.)

Each structure is given as a SMILES string.

T2 sequence (P42338 with tags, fused parts or gaps limits assumed): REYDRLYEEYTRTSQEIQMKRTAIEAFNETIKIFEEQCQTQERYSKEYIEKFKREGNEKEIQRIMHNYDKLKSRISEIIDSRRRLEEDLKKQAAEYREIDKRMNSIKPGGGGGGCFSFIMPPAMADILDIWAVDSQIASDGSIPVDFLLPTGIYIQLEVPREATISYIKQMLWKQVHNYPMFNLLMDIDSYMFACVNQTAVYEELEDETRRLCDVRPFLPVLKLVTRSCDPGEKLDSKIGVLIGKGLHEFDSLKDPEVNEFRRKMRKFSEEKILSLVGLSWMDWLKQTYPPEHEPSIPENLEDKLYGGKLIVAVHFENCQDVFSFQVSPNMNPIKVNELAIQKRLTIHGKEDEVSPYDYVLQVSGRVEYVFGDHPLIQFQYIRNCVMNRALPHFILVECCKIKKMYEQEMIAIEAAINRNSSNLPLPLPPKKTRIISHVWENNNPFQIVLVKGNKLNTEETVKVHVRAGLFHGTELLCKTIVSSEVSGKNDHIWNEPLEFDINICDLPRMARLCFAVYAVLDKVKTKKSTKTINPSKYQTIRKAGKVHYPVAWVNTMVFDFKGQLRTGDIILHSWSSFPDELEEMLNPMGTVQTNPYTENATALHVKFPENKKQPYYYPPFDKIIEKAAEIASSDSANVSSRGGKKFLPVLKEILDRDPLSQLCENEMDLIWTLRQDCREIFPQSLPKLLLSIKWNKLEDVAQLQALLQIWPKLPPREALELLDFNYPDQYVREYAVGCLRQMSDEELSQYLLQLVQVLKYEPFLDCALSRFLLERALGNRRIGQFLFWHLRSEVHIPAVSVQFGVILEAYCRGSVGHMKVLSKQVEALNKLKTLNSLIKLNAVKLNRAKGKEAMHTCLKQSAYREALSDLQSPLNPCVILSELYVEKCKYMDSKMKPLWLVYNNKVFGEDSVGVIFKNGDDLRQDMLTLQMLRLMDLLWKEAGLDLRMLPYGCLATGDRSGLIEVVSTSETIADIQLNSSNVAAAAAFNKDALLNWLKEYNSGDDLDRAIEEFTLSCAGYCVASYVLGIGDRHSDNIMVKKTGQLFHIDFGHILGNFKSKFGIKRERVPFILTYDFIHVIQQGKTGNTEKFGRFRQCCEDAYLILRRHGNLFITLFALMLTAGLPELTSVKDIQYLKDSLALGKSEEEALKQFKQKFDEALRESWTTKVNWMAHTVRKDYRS
T3 sequence (O00329 with tags, fused parts or gaps limits assumed): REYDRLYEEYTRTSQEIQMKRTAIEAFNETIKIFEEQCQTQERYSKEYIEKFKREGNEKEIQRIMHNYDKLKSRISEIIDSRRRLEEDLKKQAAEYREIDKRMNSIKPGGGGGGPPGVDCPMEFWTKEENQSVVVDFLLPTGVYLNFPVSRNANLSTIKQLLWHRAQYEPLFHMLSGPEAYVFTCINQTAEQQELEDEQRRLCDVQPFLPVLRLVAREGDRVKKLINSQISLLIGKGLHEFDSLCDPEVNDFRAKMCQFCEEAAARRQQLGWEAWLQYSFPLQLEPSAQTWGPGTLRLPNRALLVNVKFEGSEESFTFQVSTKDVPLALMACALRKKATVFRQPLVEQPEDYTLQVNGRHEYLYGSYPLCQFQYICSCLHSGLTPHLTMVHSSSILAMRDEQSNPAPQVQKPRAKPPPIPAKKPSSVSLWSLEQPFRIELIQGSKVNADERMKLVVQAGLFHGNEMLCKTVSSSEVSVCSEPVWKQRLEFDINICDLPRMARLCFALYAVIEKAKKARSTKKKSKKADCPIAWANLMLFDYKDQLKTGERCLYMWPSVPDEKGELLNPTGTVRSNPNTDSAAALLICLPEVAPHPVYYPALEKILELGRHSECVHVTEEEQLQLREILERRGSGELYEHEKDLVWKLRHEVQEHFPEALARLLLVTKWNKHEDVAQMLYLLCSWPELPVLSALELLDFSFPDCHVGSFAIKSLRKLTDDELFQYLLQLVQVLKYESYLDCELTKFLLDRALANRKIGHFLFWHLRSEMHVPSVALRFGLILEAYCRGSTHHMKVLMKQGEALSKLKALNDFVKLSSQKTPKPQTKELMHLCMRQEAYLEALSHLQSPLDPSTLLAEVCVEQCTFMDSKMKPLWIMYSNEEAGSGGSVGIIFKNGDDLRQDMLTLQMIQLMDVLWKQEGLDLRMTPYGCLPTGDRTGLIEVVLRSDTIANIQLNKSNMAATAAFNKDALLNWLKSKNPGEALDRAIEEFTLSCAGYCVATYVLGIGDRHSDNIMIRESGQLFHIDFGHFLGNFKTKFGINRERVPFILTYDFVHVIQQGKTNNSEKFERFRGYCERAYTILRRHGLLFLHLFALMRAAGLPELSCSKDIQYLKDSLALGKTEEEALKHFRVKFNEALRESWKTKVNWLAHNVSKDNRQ
T1 sequence (P42336 with tags, fused parts or gaps limits assumed): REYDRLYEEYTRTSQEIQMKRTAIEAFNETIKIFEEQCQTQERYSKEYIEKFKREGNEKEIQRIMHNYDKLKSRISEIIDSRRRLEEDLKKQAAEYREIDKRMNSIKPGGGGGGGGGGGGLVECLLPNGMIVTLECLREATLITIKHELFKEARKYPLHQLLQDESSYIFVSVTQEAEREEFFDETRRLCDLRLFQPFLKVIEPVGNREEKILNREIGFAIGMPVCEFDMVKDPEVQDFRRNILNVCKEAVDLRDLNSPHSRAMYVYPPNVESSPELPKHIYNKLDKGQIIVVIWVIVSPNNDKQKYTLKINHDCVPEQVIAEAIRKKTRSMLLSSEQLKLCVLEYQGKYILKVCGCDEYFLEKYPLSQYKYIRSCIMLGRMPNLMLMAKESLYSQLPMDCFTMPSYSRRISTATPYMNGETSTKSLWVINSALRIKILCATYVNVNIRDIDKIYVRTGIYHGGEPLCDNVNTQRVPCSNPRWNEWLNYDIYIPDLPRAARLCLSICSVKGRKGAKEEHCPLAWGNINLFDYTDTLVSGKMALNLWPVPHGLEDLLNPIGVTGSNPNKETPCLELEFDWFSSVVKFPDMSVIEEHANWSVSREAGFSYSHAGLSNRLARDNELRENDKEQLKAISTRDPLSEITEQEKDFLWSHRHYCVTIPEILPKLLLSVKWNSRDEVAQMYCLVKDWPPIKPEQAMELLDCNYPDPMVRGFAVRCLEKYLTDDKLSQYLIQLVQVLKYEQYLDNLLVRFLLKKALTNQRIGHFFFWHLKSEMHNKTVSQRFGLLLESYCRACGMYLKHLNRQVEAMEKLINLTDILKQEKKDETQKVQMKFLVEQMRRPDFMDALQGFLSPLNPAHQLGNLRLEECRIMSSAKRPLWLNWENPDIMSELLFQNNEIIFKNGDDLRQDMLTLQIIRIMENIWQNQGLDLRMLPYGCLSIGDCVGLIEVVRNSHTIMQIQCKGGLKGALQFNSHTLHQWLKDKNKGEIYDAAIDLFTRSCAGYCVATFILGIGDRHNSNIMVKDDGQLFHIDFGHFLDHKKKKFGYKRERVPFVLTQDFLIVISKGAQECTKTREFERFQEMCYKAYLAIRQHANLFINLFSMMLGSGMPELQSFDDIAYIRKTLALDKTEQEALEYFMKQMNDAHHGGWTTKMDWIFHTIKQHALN

By IC50 is commonly meant the concentration that gives 50% inhibition. For the compound `CNc1ncc(-c2ccc3ncc4c(c3c2)n(-c2c(C)noc2C)c(=O)n4C)cc1Cl` [Example 146.6, 8-(5-Chloro-6-methylamino-pyridin-3-yl)-1-(3,5-dimethyl-isoxazol-4-yl)-3-methyl-1,3-dihydro-imidazo[4,5-c]quinolin-2-one], the IC50 was 92 nM in test [1], 281 nM in test [2] and 10 nM in test [3].
On to `COCc1cc(-c2ccc3ncc4c(c3c2)n(-c2cn(C(C)C)nc2C)c(=O)n4C)cnc1N` [Example 168.1, 8-(6-Amino-5-methoxymethyl-pyridin-3-yl)-1-(1-isopropyl-3-methyl-1H-pyrazol-4-yl)-3-methyl-1,3-dihydro-imidazo[4,5-c]quinolin-2-one], for which the half-maximal inhibitory concentration (IC50) was determined as 14 nM in test [1], 34 nM in test [2] and 5 nM in test [3].
The like results for `CCn1cc(-n2c(=O)n(C)c3cnc4ccc(-c5cncc(C6(C#N)CCC6)c5)cc4c32)c(C)n1` [Example 221.2, 1-{5-[1-(1-Ethyl-3-methyl-1H-pyrazol-4-yl)-3-methyl-2-oxo-2,3-dihydro-1H-imidazo[4,5-c]quinolin-8-yl]-pyridin-3-yl}-cyclobutanecarbonitrile] were, in that order, 13 nM, 29 nM and 6 nM.
The corresponding values for `COCCNC(=O)c1cc(-c2ccc3ncc4c(c3c2)n(-c2cn(C)nc2C)c(=O)n4C)cnc1N` [Example 226, 2-Amino-5-[1-(1,3-dimethyl-1H-pyrazol-4-yl)-3-methyl-2-oxo-2,3-dihydro-1H-imidazo[4,5-c]quinolin-8-yl]-N-(2-methoxy-ethyl)-nicotinamide] are 33 nM, 71 nM and 21 nM.
The corresponding values for `Cc1nn(C)c(C)c1-n1c(=O)n(C)c2cnc3ccc(-c4cnc(N)c(C(F)(F)F)c4)cc3c21` [Example 25.3, 8-(6-Amino-5-trifluoromethyl-pyridin-3-yl)-3-methyl-1-(1,3,5-trimethyl-1H-pyrazol-4-yl)-1,3-dihydro-imidazo[4,5-c]quinolin-2-one] are 59 nM, 48 nM and 46 nM.
Take `Cc1nn(C(C)C)cc1-n1c(=O)n(C)c2cnc3ccc(-c4cncc(C(O)(CF)CF)c4)cc3c21` [Example 219, 8-[5-(2-Fluoro-1-fluoromethyl-1-hydroxy-ethyl)-pyridin-3-yl]-1-(1-isopropyl-3-methyl-1H-pyrazol-4-yl)-3-methyl-1,3-dihydro-imidazo[4,5-c]quinolin-2-one]: the values for the IC50 in test [1], in test [2] and in test [3] were 12 nM, 49 nM and 13 nM, respectively.
The corresponding values for `Cc1nn(C)cc1-n1c(=O)n(C)c2cnc3ccc(-c4cnc(N)nc4)cc3c21` [Example 81.1, 8-(2-Amino-pyrimidin-5-yl)-1-(1,3-dimethyl-1H-pyrazol-4-yl)-3-methyl-1,3-dihydro-imidazo[4,5-c]quinolin-2-one] are 75 nM, 91 nM and 39 nM.
For `CNc1ccc(-c2ccc3ncc4c(c3c2)n(-c2cn(C)nc2Cl)c(=O)n4C)cn1` [Example 118.5, 1-(3-Chloro-1-methyl-1H-pyrazol-4-yl)-3-methyl-8-(6-methylamino-pyridin-3-yl)-1,3-dihydro-imidazo[4,5-c]quinolin-2-one], the IC50 in test [1] was 9 nM; in test [2], 41 nM; in test [3], 5 nM.
The like results for `CNc1cc(-c2ccc3ncc4c(c3c2)n(-c2c(C)nn(C)c2C)c(=O)n4C)cnc1CO` [Example 158.4, 8-(6-Hydroxymethyl-5-methylamino-pyridin-3-yl)-3-methyl-1-(1,3,5-trimethyl-1H-pyrazol-4-yl)-1,3-dihydro-imidazo[4,5-c]quinolin-2-one] were, in that order, 72 nM, 112 nM and 11 nM.
The corresponding values for `CCNc1ncc(-c2ccc3ncc4c(c3c2)n(-c2c(C)nn(C)c2C)c(=O)n4C)cc1C(F)(F)F` [Example 145.1, 8-(6-Ethylamino-5-trifluoromethyl-pyridin-3-yl)-3-methyl-1-(1,3,5-trimethyl-1H-pyrazol-4-yl)-1,3-dihydro-imidazo[4,5-c]quinolin-2-one] are 42 nM, 162 nM and 18 nM.
The corresponding values for `CNc1ncc(-c2ccc3ncc4c(c3c2)n(-c2cn(C(C)C)nc2C)c(=O)n4C)cc1Cl` [Example 146.3, 8-(5-Chloro-6-methylamino-pyridin-3-yl)-1-(1-isopropyl-3-methyl-1H-pyrazol-4-yl)-3-methyl-1,3-dihydro-imidazo[4,5-c]quinolin-2-one] are 50 nM, 207 nM and 14 nM.
In the case of `Cc1noc(C)c1-n1c(=O)n(C)c2cnc3ccc(-c4cnc(N)c(C(F)(F)F)c4)cc3c21` [Example 25.5, 8-(6-Amino-5-trifluoromethyl-pyridin-3-yl)-1-(3,5-dimethyl-isoxazol-4-yl)-3-methyl-1,3-dihydro-imidazo[4,5-c]quinolin-2-one], the IC50 in test [1] worked out at 30 nM; in test [2], 30 nM; in test [3], 10 nM.
Take `CCOCc1cc(-c2ccc3ncc4c(c3c2)n(-c2cn(CC)nc2C)c(=O)n4C)cnc1N` [Example 166.2, 8-(6-Amino-5-ethoxymethyl-pyridin-3-yl)-1-(1-ethyl-3-methyl-1H-pyrazol-4-yl)-3-methyl-1,3-dihydro-imidazo[4,5-c]quinolin-2-one]: the IC50 in test [1] was 15 nM; in test [2] it was 81 nM; in test [3], 7 nM.
The corresponding values for `Cc1nn(C)cc1-n1c(=O)n(C)c2cnc3ccc(-c4cncc(OCCF)c4)cc3c21` [Example 181, 1-(1,3-Dimethyl-1H-pyrazol-4-yl)-8-[5-(2-fluoro-ethoxy)-pyridin-3-yl]-3-methyl-1,3-dihydro-imidazo[4,5-c]quinolin-2-one] are 12 nM, 13 nM and 24 nM.
The like results for `Cc1nn(C)cc1-n1c(=O)n(C)c2cnc3ccc(-c4cnc(F)c(N(C)C)c4)cc3c21` [Example 151, 8-(5-Dimethylamino-6-fluoro-pyridin-3-yl)-1-(1,3-dimethyl-1H-pyrazol-4-yl)-3-methyl-1,3-dihydro-imidazo[4,5-c]quinolin-2-one] were, in that order, 6 nM, 21 nM and 5 nM.
For `Cc1nn(C)cc1-n1c(=O)n(C)c2cnc3ccc(-c4cnc(N)c(F)c4)cc3c21` [Example 142.2, 8-(6-Amino-5-fluoro-pyridin-3-yl)-1-(1,3-dimethyl-1H-pyrazol-4-yl)-3-methyl-1,3-dihydro-imidazo[4,5-c]quinolin-2-one], the IC50 is 18 nM in test [1], 287 nM in test [2] and 33 nM in test [3].
The like results for `Cc1nn(C(C)C)cc1-n1c(=O)n(C)c2cnc3ccc(-c4cnc(N)c(C(F)(F)F)c4)cc3c21` [Example 25.4, 8-(6-Amino-5-trifluoromethyl-pyridin-3-yl)-1-(1-isopropyl-3-methyl-1H-pyrazol-4-yl)-3-methyl-1,3-dihydro-imidazo[4,5-c]quinolin-2-one] were, in that order, 12 nM, 16 nM and 4 nM.
The corresponding values for `CCNc1cc(-c2ccc3ncc4c(c3c2)n(-c2cn(C)nc2Cl)c(=O)n4C)cnc1OC` [Example 90.1, 1-(3-Chloro-1-methyl-1H-pyrazol-4-yl)-8-(5-ethylamino-6-methoxy-pyridin-3-yl)-3-methyl-1,3-dihydro-imidazo[4,5-c]quinolin-2-one] are 43 nM, 39 nM and 31 nM.
On to `Cc1nn(C)cc1-n1c(=O)n(C)c2cnc3ccc(-c4cnc(N)c(C(=O)NC(C)C)c4)cc3c21` [Example 225, 2-Amino-5-[1-(1,3-dimethyl-1H-pyrazol-4-yl)-3-methyl-2-oxo-2,3-dihydro-1H-imidazo[4,5-c]quinolin-8-yl]-N-isopropyl-nicotinamide], for which the IC50 in test [1] was 20 nM; in test [2], 44 nM; in test [3], 26 nM.
As for `CC(=O)Nc1cc(-c2ccc3ncc4c(c3c2)n(-c2cn(C)nc2C)c(=O)n4C)cnc1Cl` [Example 222, N-{2-Chloro-5-[1-(1,3-dimethyl-1H-pyrazol-4-yl)-3-methyl-2-oxo-2,3-dihydro-1H-imidazo[4,5-c]quinolin-8-yl]-pyridin-3-yl}-acetamide], the IC50 in test [1] was 43 nM; in test [2], 134 nM; in test [3] it was 82 nM.
The corresponding values for `CCNc1ncc(-c2ccc3ncc4c(c3c2)n(-c2cn(C)nc2C)c(=O)n4C)cc1Cl` [Example 147, 8-(5-Chloro-6-ethylamino-pyridin-3-yl)-1-(1,3-dimethyl-1H-pyrazol-4-yl)-3-methyl-1,3-dihydro-imidazo[4,5-c]quinolin-2-one] are 25 nM, 114 nM and 8 nM.

The values are drawn from US20140005163A1 (NOVARTIS AG, priority 2010, published 2014).
